From ChEMBL document CHEMBL1155310, “Synthesis and evaluation of 2-amino-dihydrotetrabenzine derivatives as probes for imaging vesicular monoamine transporter-2” (Bioorg Med Chem Lett, 2009)

Assays:
[1] = Ratio of drug level in striatum to cerebellum in iv dosed mouse after 30 mins; format: ADME, organism-based; conditions: in vivo, 0.5 h
[2] = target: Synaptic vesicular amine transporter (Homo sapiens, UniProt Q05940); test: Binding affinity to VMAT2
[3] = target: T1, Synaptic vesicular amine transporter (Rattus norvegicus, UniProt Q01827); test: Displacement of [125I]-iodovinyl-TBZ from VMAT2 in rat striatal membrane homogenates; format: cell membranes, Striatum
[4] = target: T1, Synaptic vesicular amine transporter; test: Displacement of [3H]-DTBZ from VMAT2 in rat striatal membrane homogenates; format: cell membranes, Striatum

T1 sequence (Q01827 whole entry): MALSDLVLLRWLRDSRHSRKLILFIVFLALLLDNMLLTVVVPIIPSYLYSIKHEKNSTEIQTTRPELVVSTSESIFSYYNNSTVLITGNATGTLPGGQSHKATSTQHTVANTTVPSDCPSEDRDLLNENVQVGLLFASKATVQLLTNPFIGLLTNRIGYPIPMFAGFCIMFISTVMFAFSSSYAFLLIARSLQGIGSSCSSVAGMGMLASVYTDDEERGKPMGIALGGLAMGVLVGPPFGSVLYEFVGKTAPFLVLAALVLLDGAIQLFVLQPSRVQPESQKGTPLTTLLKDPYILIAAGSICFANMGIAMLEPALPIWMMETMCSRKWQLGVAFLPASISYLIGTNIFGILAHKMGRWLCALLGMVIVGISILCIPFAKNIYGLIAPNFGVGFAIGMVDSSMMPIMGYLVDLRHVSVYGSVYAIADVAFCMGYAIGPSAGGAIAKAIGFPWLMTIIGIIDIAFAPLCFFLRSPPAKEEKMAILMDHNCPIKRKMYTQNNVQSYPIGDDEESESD
Chain of Synaptic vesicular amine transporter (Homo sapiens, UniProt Q05940) (Q05940 whole entry): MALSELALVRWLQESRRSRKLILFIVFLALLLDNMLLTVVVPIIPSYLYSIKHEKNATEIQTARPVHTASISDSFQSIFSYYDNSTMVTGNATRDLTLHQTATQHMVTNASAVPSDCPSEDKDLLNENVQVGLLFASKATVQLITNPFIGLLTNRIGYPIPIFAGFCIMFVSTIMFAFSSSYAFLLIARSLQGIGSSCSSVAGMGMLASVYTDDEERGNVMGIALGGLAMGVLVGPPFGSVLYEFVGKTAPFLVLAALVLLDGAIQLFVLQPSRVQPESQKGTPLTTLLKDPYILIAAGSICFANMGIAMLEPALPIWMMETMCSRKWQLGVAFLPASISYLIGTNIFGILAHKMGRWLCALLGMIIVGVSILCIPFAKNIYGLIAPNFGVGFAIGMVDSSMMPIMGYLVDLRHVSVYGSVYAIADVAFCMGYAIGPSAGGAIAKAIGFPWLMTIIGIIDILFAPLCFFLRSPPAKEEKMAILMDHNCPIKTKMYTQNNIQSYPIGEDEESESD

| SMILES | Ratio [1] | Ki [2] [nM] | Ki [3] [nM] | Ki [4] [nM] |
| --- | --- | --- | --- | --- |
| COc1cc2c(cc1OCCCF)CCN1C[C@@H](CC(C)C)[C@H](O)C[C@H]21 [FLORBENAZINE] | 4.51 | 0.1 | 0.24 | 0.36 |
| COc1cc2c(cc1OC)C1CC(NCCF)C(CC(C)C)CN1CC2 (stereo in doubt; 4-I) |  |  | 9.21 | 8.63 |
| COc1cc2c(cc1OC)C1CC(NCCF)C(CC(C)C)CN1CC2 (mixture of isomers) |  |  | 28 | 230 |
| COc1cc2c(cc1OC)C1CC(NCCF)C(CC(C)C)CN1CC2 (single isomer, unassigned; diastereomer 2) |  |  | 226 | 686 |
| COc1cc2c(cc1OC)C1CC(NCCCF)C(CC(C)C)CN1CC2 (stereo unspecified) |  |  | 8.68 | 7.01 |

Continued, values first:

| Ratio [1] | Ki [2] [nM] | Ki [3] [nM] | Ki [4] [nM] | SMILES |
| --- | --- | --- | --- | --- |
|  |  | 45 | 150 | COc1cc2c(cc1OC)C1CC(N)C(CC(C)C)CN1CC2 (stereo unspecified) |
|  |  | 199 | 269 | CNC1CC2c3cc(OC)c(OC)cc3CCN2CC1CC(C)C (stereo unspecified) |
